{
  "source": "patent US12351828B2",
  "about": "“Method for constructing hepatic progenitor cell-like cell bank, cell lines prepared therefrom and application thereof” (SHANGHAI CELLIVER BIOTECHNOLOGY CO., LTD., priority 2019, dated 2025)",
  "assay_in_all_cases": "Erlotinib-specific hepatotoxicity, in vitro three-dimensional hepatocyte model, PrestoBlue cell viability",
  "assay_type_in_all_cases": "cell-based, human",
  "key": {"[1]": {"tested_on": "first hepatocyte model line", "conditions": "co-cultured 48 hours, 0.24-250 μMol/L, FIG. 6a", "text": "(§1) The in vitro three-dimensional hepatocyte model is constructed by using the hepatic progenitor cell-like cell bank. The method for constructing the in vitro three-dimensional hepatocyte model is stated in the “Expansion and Differentiation of Human Hepatocyte-derived Liver Progenitor-like Cells and Their Use for the Study of Hepatotropic Pathogens” published in Volume 29, Issue 1, 2018, Cell Research, and is not repeated here. In the process of constructing the in vitro three-dimensional hepatocyte model, a first hepatocyte model line, a second hepatocyte model line, a third hepatocyte model line, a fourth hepatocyte model line, a fifth hepatocyte model line and a sixth hepatocyte model line are obtained by the first immortal hepatic progenitor cell-like cell line, the second immortal hepatic progenitor cell-like cell line, the third immortal hepatic progenitor cell-like cell line, the fourth immortal hepatic progenitor cell-like cell line, the fifth immortal hepatic progenitor cell-like cell line and the sixth immortal hepatic progenitor cell-like cell line, respectively.\n(§2) In the embodiment of the present invention, the specific toxic drug Erlotinib is used to characterize the specific hepatotoxicity of the in vitro three-dimensional hepatocyte model.\n(§3) Preparing a Erlotinib solutions with concentrations of 250 μMol/L, 62.5 μMol/L, 15.625 μMol/L, 3.9 μMol/L, 0.97 μMol/L, 0.24 μMol/L by dimethyl sulfoxide (DMSO), and using DMSO as a blank reference.\n(§4) Each hepatocyte model line in the in vitro three-dimensional hepatocyte model is co-cultured with different concentrations of Erlotinib aqueous solution for 48 hours.\n(§5) After the co-culture is completed, the PrestoBlue™ cell viability testing reagent produced by Life Technologies is used to characterize the Erlotinib-specific hepatotoxicity in each culture obtained after the co-culture, respectively. The specific methods for the co-culture and the characterization of the Erlotinib-specific hepatotoxicity are common methods known by those skilled in the art and will not be repeated here."}, "[2]": {"tested_on": "third hepatocyte model line", "conditions": "co-cultured 48 hours, 0.24-250 μMol/L, FIG. 6c", "text": "as §1, §2, §3, §4, §5"}, "[3]": {"tested_on": "sixth hepatocyte model line", "conditions": "co-cultured 48 hours, 0.24-250 μMol/L, FIG. 6f", "text": "as §1, §2, §3, §4, §5"}, "[4]": {"tested_on": "second hepatocyte model line", "conditions": "co-cultured 48 hours, 0.24-250 μMol/L, FIG. 6b", "text": "as §1, §2, §3, §4, §5"}, "[5]": {"tested_on": "fifth hepatocyte model line", "conditions": "co-cultured 48 hours, 0.24-250 μMol/L, FIG. 6e", "text": "as §1, §2, §3, §4, §5"}, "[6]": {"tested_on": "fourth hepatocyte model line", "conditions": "co-cultured 48 hours, 0.24-250 μMol/L, FIG. 6d", "text": "as §1, §2, §3, §4, §5"}},
  "data": [
    {"smiles": "C#Cc1cccc(Nc2ncnc3cc(OCCOC)c(OCCOC)cc23)c1", "note": "[Erlotinib]", "values": [
      {"measurement": "cell viability with the increase in the concentration of Erlotinib solution", "setting": "[1]", "result": "basically does not significant changed"},
      {"measurement": "cell viability with the increase in the concentration of Erlotinib solution", "setting": "[2]", "result": "significant downward trend"},
      {"measurement": "cell viability with the increase in the concentration of Erlotinib solution", "setting": "[3]", "result": "basically does not significant changed"},
      {"measurement": "cell viability with the increase in the concentration of Erlotinib solution", "setting": "[4]", "result": "basically does not significant changed"},
      {"measurement": "cell viability with the increase in the concentration of Erlotinib solution", "setting": "[5]", "result": "basically does not significant changed"},
      {"measurement": "cell viability with the increase in the concentration of Erlotinib solution", "setting": "[6]", "result": "significant downward trend"}
    ]}
  ]
}
